According to patent US20190127705A1, “METHOD FOR CULTURING MULTIPLE OVARIAN FOLLICLES BY USING ANGIOTENSIN II RECEPTOR AGONIST” (SEOUL NATIONAL UNIVERSITY R&DB FOUNDATION, priority 2016, published 2019):
“Also recorded” adds a separate entry of the source.

How the values were obtained:
Format in all cases: cell-based, mouse
[1] = test system: single pre-antral follicle; assay: in vitro culturing of a single pre-antral follicle (growth, ovulation and maturation after ovulation induction); details: for ovulation rate / growth of the follicle: single-follicle culturing, 10 ug/mL from day 5; for ovulation rate: 16 to 18 hours after ovulation induction, versus untreated single-follicle, FIG. 2; for growth of the follicle: fifth day compared with 13th day, versus untreated control (CTL), FIG. 1
Source text: (§1) Specifically, an ovary was separated from a 14-day old mouse and placed in HBSS (Hank's balanced salt solution) containing 10% bovine serum. Then, pre-antral follicles in an early developmental stage were mechanically separated using a 28-gauge syringe needle. At this time, degenerated pre-antral follicles were removed, and healthy pre-antral follicles were used for a pre-antral follicle culturing. One separated pre-antral follicle was used for a single-follicle culturing, and a cluster including two to four pre-antral follicles joined together was used for culturing a cluster of multiple follicles.
(§2) After 25 20 μl culture liquid droplets were made on each culture dish (Falcon 3000, BD Biosciences, 60×15 mm), the collected single pre-antral follicle, or the cluster of multiple follicles consisting of 2 to 4 joined pre-antral follicles were seeded to each droplet. Then, those follicles were cultured in a 5% CO2 incubator at 37° C. for about 2 weeks. The culture liquid used here is Opti-MEM medium (Invitrogen) including insulin, 5% bovine serum, recombinant follicle stimulating hormone (FSH, Gonal-F®, Merck Serono, 0.2 IU/mL) and recombinant luteinizing hormone (LH, Luveris®, Merck Serono, 0.1 IU/mL). The culture liquid was changed in half with new medium every two days. In culturing process, a follicle morphology was observed using an inverted microscope (TE-2000; Nikon).
(§3) In order to observe a follicle culturing effect based on a regulation of the angiotensin II receptor, the single pre-antral follicle and the cluster of multiple follicles were compared and analyzed by divided into 3 groups: control group, angiotensin II receptor agonist (CGP-42112, Sigma)-treated group, and angiotensin II receptor antagonist (Saralasin, Sigma)-treated group. Specifically, the single pre-antral follicle and the cluster of multiple follicles were treated with the angiotensin II receptor agonist or the angiotensin II receptor antagonist to have a concentration of 10 ug/mL from day 5 of culturing.
(§4) On the 12th day of the culturing, it was observed that the pre-antral follicle was matured into an antral follicle. Then, the antral follicle was treated with recombinant human […], rhCG, Ovidrel®, Merck Serono) of 1.5 IU/m and human epidermal growth factor (hEGF) of 5 ng/mL in order to induce ovulation. At 16 to 18 hours after the ovulation induction, ovulation rate and maturation rate were calculated.
(§5) Specifically, the ovulation rate was calculated by counting the number of follicles ovulated after administration of the human […] and the human epidermal growth factor among the seeded follicles, and the maturation rate was calculated by counting the number of ova in MII phase among the ovulated ova.
In order to investigate effect of angiotensin II in culturing a single-follicle, growth and maturation rates based on the treatment with angiotensin II receptor agonist or angiotensin II receptor antagonist were intended to be investigated. […] Further, ovulation rates were investigated by inducing ovulation in the cultured follicles.

[2] = test system: multiple follicles cultured collectively; assay: culturing multiple follicles collectively (growth, follicle fluid); details: multiple follicles collectively treated with agonist; bottom of FIG. 8
Source text: as §1, with “follicles. […]” for “follicles.”
In order to observe a follicle culturing effect based on a regulation of the angiotensin II receptor, the single pre-antral follicle and the cluster of multiple follicles were compared and analyzed by divided into 3 groups: control group, angiotensin II receptor agonist (CGP-42112, Sigma)-treated group, and angiotensin II receptor antagonist (Saralasin, Sigma)-treated group. […]
On the 12th day of the culturing, it was observed that the pre-antral follicle was matured into an antral follicle. […] At 16 to 18 hours after the ovulation induction, ovulation rate and maturation rate were calculated. […]

[3] = test system: mature follicle ovulated from cultured follicles; assay: in vitro fertilization of ova from cultured follicles and embryo observation
Experimental: In vitro fertilization was performed to evaluate fertilization rates of the ova obtained by the induction of ovulation. Specifically, a mature follicle ovulated in HTF (human tubal fluid) medium in the 5% CO2 incubator at 37° C. was fertilized with a sperm collected from a 8 week old male C57BL6 mouse. When cell division occur or two pronuclei are seen and a second polar body is observed, the ovum is regarded as fertilized.
In order to further confirm the effect of the angiotensin II in culturing the cluster of multiple follicles, maturation rate and fertilization rate were intended to be checked. Mature follicles were ovulated by treating them with the angiotensin II receptor agonist and inducing the ovulation via the method of Example 1 to Example 5. Then, the ovulated mature follicles were fertilized with sperms.

[4] = test system: cluster of multiple follicles; assay: in vitro culturing of a cluster of multiple follicles (growth, follicle fluid, maturation rate); details: for growth of the cluster of multiple follicles: cluster of two to four joined follicles, fifth day compared with 13th day
Source text: as §1, §2, §3, §4
as §5, with “ova. […]” for “ova.”

[5] = 10 ug/mL from day 5, FIG. 3, FIG. 8 top

Compound | maturation rate ([1]; single-follicle culturing with agonist treatment, ova in MII phase among ovulated ova, FIG. 5) [%] | ovulation rate [1] | growth of the follicle [1] | follicle fluid accumulation in the follicles [2] | growth of the follicles [2] | cleavage of an embryo ([3]; after fertilizing matured follicles from agonist-treated cultures, FIG. 7) | fertilization rates ([3]; single-follicle culturing compared with culturing of the cluster of multiple follicles, agonist treated, FIG. 6) | accumulation of the follicle fluid in the follicle ([4]; cluster of multiple follicles, 10 ug/mL from day 5, FIG. 3, FIG. 8 top) | growth of the cluster of multiple follicles [4, 5] | maturation rate ([4]; culturing of the cluster of multiple follicles with agonist treatment, ova in MII phase among ovulated ova, FIG. 5) [%]
CGP-42112 [angiotensin II receptor agonist] | 11 | not significantly different | growing at a level similar to a single-follicle (control group, CTL) that had not been treated | almost no follicle fluid accumulation | all follicles promoted to grow but fell into apoptosis during development | progression of cleavage of an embryo was observed | no significant difference | increased; also recorded: clearly observed in the all follicles | growth of all follicles was significantly promoted; also recorded: significantly promoted to grow | 26.8
CNCC(=O)N[C@@H](CCCN=C(N)N)C(=O)N[C@H](C(=O)N[C@@H](Cc1ccc(O)cc1)C(=O)N[C@H](C(=O)N[C@@H](Cc1cnc[nH]1)C(=O)N1CCC[C@H]1C(=O)N[C@@H](C)C(=O)O)C(C)C)C(C)C [angiotensin II receptor antagonist, Saralasin] | – | not significantly different | growing at a level similar to a single-follicle (control group, CTL) that had not been treated | – | – | – | – | – | did not grow simultaneously but fell into apoptosis during development | –
